# In patent EP0332216A1 (priority 1988, dated 1989):
# What was measured:
# bacteria = test: Anti-microbial activity in vitro (bacteria); type: cell-based; details: concentration of 500 µg/mℓ
# [1] = Acute toxicity in mice (intraperitoneal); details: mouse, in vivo, ip; JCL/ICR male mice, 5 weeks; administration into the peritoneal cavity; mortality after two weeks; read-out: LD₅₀
# yeast = test: Anti-microbial activity in vitro (yeast); type: cell-based; details: concentration of 500 µg/mℓ
# Solubility to solvent = type: physicochemical
# filamentous fungi = test: Anti-microbial activity in vitro (filamentous fungi); type: cell-based; details: concentration of 500 µg/mℓ
smiles,measurement,setting,value
CC1=C(C(=O)O)COC1=O [F-0368],anti-microbial activity in vitro,bacteria,did not indicate its anti-microbial activity
same,LD50 at 336 h,[1],~200 mg/kg
same,anti-microbial activity in vitro,yeast,did not indicate its anti-microbial activity
same,Solubility to Solvent,Solubility to solvent; acetone,Readily soluble
same,Solubility to Solvent,Solubility to solvent; benzene,Non-soluble
same,Solubility to Solvent,Solubility to solvent; chloroform,Non-soluble
same,Solubility to Solvent,Solubility to solvent; ethanol,Readily soluble
same,Solubility to Solvent,Solubility to solvent; ethyl acetate,Soluble
same,Solubility to Solvent,Solubility to solvent; hexane,Non-soluble
same,Solubility to Solvent,Solubility to solvent; methanol,Readily soluble
same,Solubility to Solvent,Solubility to solvent; water,Soluble
same,anti-microbial activity in vitro,filamentous fungi,did not indicate its anti-microbial activity
